Test results reported in patent US11207291B2, “Antimicrobial compositions comprising cannabinoids and methods of using the same” (Graphium Biosciences, Inc., priority 2017, dated 2021).
Converted amounts (≈) assume the structure as drawn. Read-outs that look alike come from different tables or passages of the source.

What was measured:
[1] = test system: B. longum MMX 3968; assay: MIC/MBC testing (Example 5); assay type: cell-based
[2] = test system: Lactobacillus crispatus; assay: Broth microdilution MIC, anaerobic bacteria (Example 1); assay type: cell-based; conditions: Lactobacillus crispatus; Example 1; isolate MMX 4147; read-out: MIC
[3] = test system: Bifidobacterium longum; assay: Broth microdilution MIC, anaerobic bacteria (Example 4); assay type: cell-based; conditions: isolate MMX 3968
[4] = test system: B. fragilis ATCC 25285; conditions: Example 5 control agents table; cited from earlier work
[5] = test system: Bifidobacterium bifidum; assay: Broth microdilution MIC, anaerobic bacteria (Example 1); assay type: cell-based; conditions: Bifidobacterium bifidum; Example 1; isolate MMX 3965; read-out: MIC
[6] = test system: B. bifidum MMX 3965; assay: MIC/MBC testing (Example 5); assay type: cell-based
[7] = test system: Bacteroides fragilis; assay: Broth microdilution MIC, anaerobic bacteria (Example 1); assay type: cell-based; conditions: Bacteroides fragilis, ATCC5285
[8] = test system: C. difficile; assay: MIC/MBC testing (Example 5); assay type: cell-based; conditions: for MBC:MIC: ratios of 1-4 are indicative of bactericidal activity
[9] = test system: Bifidobacterium bifidum; assay: Broth microdilution MIC, anaerobic bacteria (Example 4); assay type: cell-based; conditions: isolate MMX 3965
[10] = test system: Clostridium difficile; assay: as above; assay type: cell-based; conditions: Clostridioides difficile
[11] = test system: Lactobacillus jensenii; assay: Broth microdilution MIC, anaerobic bacteria (Example 1); assay type: cell-based; conditions: Lactobacillus jensenii; Example 1; isolate MMX 4149; read-out: MIC
[12] = test system: Bifidobacterium longum; assay: as above; assay type: cell-based; conditions: Bifidobacterium longum; Example 1; isolate MMX 3968; read-out: MIC
[13] = test system: Clostridium difficile; assay: as above; assay type: cell-based; conditions: Clostridioides difficile
[14] = test system: B. fragilis ATCC 25285; assay: MIC/MBC testing (Example 5); assay type: cell-based; conditions: Bacteroides fragilis, ATCC25285
[15] = test system: Lactobacillus jensenii; assay: Broth microdilution MIC, anaerobic bacteria (Example 4); assay type: cell-based; conditions: isolate MMX 4149
[16] = test system: Enterococcus faecalis (VRE); assay: microbe, parasite or virus in culture; assay type: cell-based
[17] = test system: Staphylococcus aureus (MSSA); assay: Broth microdilution MIC, aerobic bacteria (Example 4); assay type: cell-based; conditions: ATCC 29213 / MSSA
[18] = test system: Streptococcus pyogenes; assay: as above; assay type: cell-based
[19] = test system: gram-negative aerobes; assay: Broth microdilution MIC, summary (Example 4); assay type: cell-based; conditions: tested alone
[20] = test system: S. pneumoniae ATCC 49619; assay: MIC/MBC testing (Example 5); assay type: cell-based; conditions: Streptococcus pneumoniae, ATCC49619
[21] = test system: S. pyogenes MMX 404; assay: MIC/MBC testing (Example 5); assay type: cell-based
[22] = test system: Enterococcus faecalis (VSE); assay: Broth microdilution MIC, aerobic bacteria (Example 4); assay type: cell-based; conditions: ATCC29212
[23] = test system: Bacteroides fragilis; assay: Broth microdilution MIC, anaerobic bacteria (Example 4); assay type: cell-based; conditions: ATCC25285, isolate MMX 123 (ATCC 25285)
[24] = test system: Aspergillus fumigatus; assay: Broth microdilution MIC, fungi (Example 4); assay type: cell-based; conditions: Aspergillus fumigatus, Example 4, isolate MMX 5280 (MYA-3626)
[25] = test system: S. aureus MMX 757; assay: MIC/MBC testing (Example 5); assay type: cell-based
[26] = test system: Candida parapsilosis; assay: Broth microdilution MIC, fungi (Example 4); assay type: cell-based; conditions: for concentration at which 50% inhibition observed relative to the growth control: value in parenthesis; for MIC: Lodderomyces parapsilosis
[27] = test system: Escherichia coli; assay: Broth microdilution MIC, aerobic bacteria (Example 4); assay type: cell-based; conditions: ATCC25922
[28] = test system: Pseudomonas aeruginosa; assay: as above; assay type: cell-based
[29] = test system: Streptococcus pneumoniae; assay: as above; assay type: cell-based; conditions: ATCC49619
[30] = test system: strains tested; assay: MIC/MBC testing, summary (Example 5); assay type: cell-based
[31] = test system: evaluated yeast and fungal isolates; assay: Broth microdilution MIC, summary (Example 4); assay type: cell-based
[32] = test system: E. coli ATCC 25922; assay: MIC/MBC testing (Example 5); assay type: cell-based; conditions: Escherichia coli, ATCC25922
[33] = Compound precipitation in uninoculated solubility controls (Example 4); assay type: physicochemical; design: key to precipitation observed (type): NA: not applicable (no precipitation observed); TRP: trace precipitate; DCP: distinct precipitate
Description: Un-inoculated solubility control plates for each test media and drug were incubated in parallel with test plates and observed for evidence of drug precipitation. MICs were read where visible growth of the organism was inhibited.

[34] = test system: E. faecalis ATCC 29212; assay: MIC/MBC testing (Example 5); assay type: cell-based
[35] = test system: S. aureus ATCC 29213; assay: MIC/MBC testing (Example 5); assay type: cell-based
[36] = test system: Acinetobacter baumannii; assay: Broth microdilution MIC, aerobic bacteria (Example 4); assay type: cell-based
[37] = test system: E. faecalis MMX 848; assay: MIC/MBC testing (Example 5); assay type: cell-based
[38] = test system: Klebsiella pneumoniae (KPC-2); assay: microbe, parasite or virus in culture; assay type: cell-based
[39] = test system: Staphylococcus aureus (MRSA); assay: microbe, parasite or virus in culture; assay type: cell-based
[40] = Clostridioides difficile, ATCC700057, Example 5, ATCC 700057
[41] = ATCC700057, Example 4, isolate MMX 4381 (ATCC 700057)
[42] = Bifidobacterium longum, MMX3968
[43] = ratios of 1-4 are indicative of bactericidal activity
[44] = Bifidobacterium bifidum, MMX3965
[45] = Clostridioides difficile, Example 5, MMX 8330
[46] = Clostridioides difficile, Example 5, MMX 8333
[47] = Enterococcus faecalis, ATCC29212
[48] = Staphylococcus aureus, ATCC29213

In the case of `Cc1ncc([N+](=O)[O-])n1CCO` [Metronidazole], the MIC ([1]; Bifidobacterium longum, MMX3968, Example 5, read-out: MIC) is reported as 8 µg/mL (≈ 46.7 µM), the MIC [2] is reported as over 32 µg/mL and the MIC [3] is reported as 8 µg/mL (≈ 46.7 µM). For the same compound, the “CLSI QC range (MIC)” value [4] was “(0.25-2)^1 μg/mL”, the MIC [5] was 1 µg/mL (≈ 5.84 µM) and the MIC ([6]; Bifidobacterium bifidum, MMX3965, Example 5, read-out: MIC) was 1 µg/mL (≈ 5.84 µM). It also gave an MIC [7] of 0.5 µg/mL (≈ 2.92 µM), an MIC [8, 40] of 0.12 µg/mL (≈ 0.701 µM) and an MIC ([8]; Clostridioides difficile, Example 5, MMX 8330, read-out: MIC) of 0.5 µg/mL (≈ 2.92 µM). The MIC ([8]; Example 5, MMX 8333) was 0.5 µg/mL (≈ 2.92 µM), the MIC [9] was 2 µg/mL (≈ 11.7 µM) and the MIC [10, 41] was 0.25 µg/mL (≈ 1.46 µM). For the same compound, the MIC ([10]; Example 4, isolate MMX 8330) was 0.25 µg/mL (≈ 1.46 µM), the MIC ([10]; Example 4, isolate MMX 8333) was 2 µg/mL (≈ 11.7 µM) and the MIC [11] was over 32 µg/mL. The MIC [12] was 8 µg/mL (≈ 46.7 µM), the MIC ([13]; ATCC00057, Example 1, isolate MMX 4381 (ATCC 00057)) was 0.12 µg/mL (≈ 0.701 µM) and the MIC ([13]; Example 1, isolate MMX 8330, read-out: MIC) was 0.12 µg/mL (≈ 0.701 µM). It also gave an MIC ([14]; Example 5, read-out: MIC) of 0.5 µg/mL (≈ 2.92 µM) and an MIC [15] of over 32 µg/mL.
`CCCCCc1cc(O)c2c(c1)OC(C)(C)[C@@H]1CCC(C)=C[C@@H]21` [THC, tetrahydrocannabinol] showed an MIC [16] of 2 µg/mL (≈ 6.36 µM), an MBC [1, 42] of over 256 µg/mL and an MIC [1, 42] of 32 µg/mL (≈ 102 µM). The “MBC:MIC” value [1, 43] was over 8, the MIC [17] was 2 µg/mL (≈ 6.36 µM) and the MIC [18] was 16 µg/mL (≈ 50.9 µM). The MIC [3] was 32 µg/mL (≈ 102 µM), the “activity against Gram-negative aerobes” value [19] was “inactive” and the MIC [20] was 1 µg/mL (≈ 3.18 µM). The MBC ([21]; Streptococcus pyogenes, MMX404) was 32 µg/mL (≈ 102 µM), the MIC ([21]; Streptococcus pyogenes, MMX404) was 32 µg/mL (≈ 102 µM) and the “MBC:MIC” value [21, 43] was 1. The MIC [22] was 2 µg/mL (≈ 6.36 µM), the MBC [6, 44] was 128 µg/mL (≈ 407 µM) and the MIC [6, 44] was 32 µg/mL (≈ 102 µM). The “MBC:MIC” value [6, 43] was 4, the MIC [23] was over 128 µg/mL and the MIC ([24]; 24 hr, read-out: MIC at 24 hr) was over 128 µg/mL. For the same compound, the MIC ([24]; 48 hr, read-out: MIC at 48 hr) was over 128 µg/mL, the “MBC:MIC” value ([8]; ATCC 700057) was 2 and the MBC [8, 40] was 128 µg/mL (≈ 407 µM). For the same compound, the MIC [8, 40] was 64 µg/mL (≈ 204 µM), the MBC [8, 45] was 64 µg/mL (≈ 204 µM) and the MIC [8, 45] was 64 µg/mL (≈ 204 µM). For the same compound, the MBC [8, 46] was 128 µg/mL (≈ 407 µM), the MIC [8, 46] was 64 µg/mL (≈ 204 µM) and the “MBC:MIC” value ([8]; MMX 8330) was 1. The “MBC:MIC” value ([8]; MMX 8333) was 2, the MBC ([25]; Staphylococcus aureus, MMX757) was 32 µg/mL (≈ 102 µM) and the MIC ([25]; Staphylococcus aureus, MMX757) was 4 µg/mL (≈ 12.7 µM). The “MBC:MIC” value [25, 43] was 8, the MIC [9] was 16 µg/mL (≈ 50.9 µM) and the “concentration at which 50% inhibition observed relative to the growth control” value ([26]; Example 4, 24 hr) was 4 µg/mL. The “concentration at which 50% inhibition observed relative to the growth control” value ([26]; Example 4, 48 hr) was 4 µg/mL, the MIC ([26]; ATCC22019, 24 h, read-out: MIC at 24 hr) was over 128 µg/mL and the MIC ([26]; ATCC22019, Example 4, 48 hr, isolate MMX 2323 (ATCC 22019), read-out: MIC at 48 hr) was over 128 µg/mL. For the same compound, the MIC [10, 41] was 32 µg/mL (≈ 102 µM), the MIC ([10]; Example 4, isolate MMX 8330) was 32 µg/mL (≈ 102 µM) and the MIC ([10]; Example 4, isolate MMX 8333) was 32 µg/mL (≈ 102 µM). It also gave an MIC [27] of over 128 µg/mL, an MIC [28] of over 128 µg/mL and an MIC [29] of 1 µg/mL (≈ 3.18 µM). The “biocidal activity against the strains tested” value [30] was “overall biocidal”, the “activity against yeast and fungal isolates” value [31] was “Neither THC nor CBD were active” and the MIC [32] was over 256 µg/mL. For the same compound, the “concentration at which precipitation was observed” value ([33]; Brucella Broth) was 128 µg/mL, the “precipitation observed (type)” value ([33]; Brucella Broth) was “DCP” and the “precipitation observed (type)” value ([33]; MHB II) was “DCP”. For the same compound, the “precipitation observed (type)” value ([33]; MHB II with Blood) was “none”, the “precipitation observed (type)” value ([33]; RPMI) was “TRP” and the MBC [34, 47] was 8 µg/mL (≈ 25.4 µM). The MIC [34, 47] was 2 µg/mL (≈ 6.36 µM), the “MBC:MIC” value [34, 43] was 4 and the MBC [35, 48] was 4 µg/mL (≈ 12.7 µM). The MIC [35, 48] was 4 µg/mL (≈ 12.7 µM), the “MBC:MIC” value [35, 43] was 1 and the MIC [36] was over 128 µg/mL. For the same compound, the MBC ([37]; Enterococcus faecalis, MMX848) was 4 µg/mL (≈ 12.7 µM), the MIC ([37]; Enterococcus faecalis, MMX848) was 2 µg/mL (≈ 6.36 µM) and the “MBC:MIC” value [37, 43] was 2. It also gave an MIC [14] of over 256 µg/mL, an MIC [38] of over 128 µg/mL and an MIC [15] of 128 µg/mL (≈ 407 µM). It also gave an MIC [39] of 2 µg/mL (≈ 6.36 µM).
